Article PMC11080515, “Novel anthraquinone amide derivatives as potential glyoxalase-I inhibitors” (Journal of Medicine and Life, 2024)
Where “and” joins values, the source holds several entries; their conditions need not be identical. Equal values may be shown once. Read-outs that look alike come from different tables or passages of the source.

Target: T1, Recombinant human Glo-I (rhGlo-I) (Homo sapiens, UniProt Q04760)
T1 construct: purchased R&D Systems Corporation
T1 sequence (Q04760 2-184 limits assumed): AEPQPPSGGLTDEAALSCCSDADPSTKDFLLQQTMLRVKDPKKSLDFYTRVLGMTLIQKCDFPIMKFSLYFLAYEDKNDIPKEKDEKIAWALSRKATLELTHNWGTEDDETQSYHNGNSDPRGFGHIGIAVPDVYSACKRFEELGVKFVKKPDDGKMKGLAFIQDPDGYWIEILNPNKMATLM
Assay: In vitro Glo-I enzyme inhibition assay (spectrophotometric, 240 nm)
Assay type: biochemical
Parameters: average inhibitory activity: dose or concentration left out as unconfirmed
Details: for inhibition at 0.625 µM / % Inhibition / inhibition at 1.25 µM / inhibition at 2.5 µM / inhibition at 5 µM / inhibition at 10 µM: single replicates
Procedure: Glo-I inhibitory action was evaluated following the methodology described by Al-Balas et al.. Recombinant human Glo-I (rhGlo-I) was procured from R&D Systems Corporation and […] in sterile deionized water at a precise concentration of 0.5 mg/ml before being reconstituted. The reconstituted rhGlo-I was stored at -70 °C until further use. Dimethyl sulfoxide (DMSO) was used to dissolve the test compounds to produce stock solutions with a 10 mM concentration. The assay buffer required for the experiment was made by mixing 0.1 M sodium phosphate monobasic solution with 0.1 M sodium phosphate dibasic solution, resulting in a pH range of 7.0–7.2. The reduced glutathione and methylglyoxal solutions were combined with a sufficient 0.1 M sodium phosphate assay buffer volume to create the substrate combination. In a cuvette, the assay buffer, substrate solution, and Glo-I enzyme were combined with the synthesized products at the required concentration. […] The maximum absorbance (γmax) was recorded at 240 nm.
In this study, the inhibitory activity of all synthesized compounds against the Glo-I enzyme was evaluated in vitro using recombinant human Glo-I obtained from R&D Systems Corporation. The methodology previously described was employed, which involved measuring the inhibition of Glo-I activity and substrate hydrolysis using a spectrophotometer at 240 nm. […] The activity profile of the tested compounds against Glo-I is depicted in Figure 12.

[1] = concentration 0.625 µM, 0.625 µM
[2] = from the % inhibition curve, 0.625-10 µM, read-out: Calculated IC50
[3] = rhGlo-I, 25 °C, pH 7.0-7.2, read-out: IC50

Row | average inhibitory activity | inhibition at 0.625 µM (concentration 0.625 µM) | % Inhibition [1] | inhibition at 1.25 µM (concentration 1.25 µM) | % Inhibition (concentration 1.25 µM, 1.25 µM) | inhibition at 2.5 µM (concentration 2.5 µM) | % Inhibition (concentration 2.5 µM, 2.5 µM) | inhibition at 5 µM (concentration 5 µM) | % Inhibition (concentration 5 µM, 5 µM) | inhibition at 10 µM (concentration 10 µM) | % Inhibition (concentration 10 µM, 10 µM) | IC50 [2] | IC50 [3] | Compound
1 | 96.63% | 27.5% | 28.34% and 22.6726% | 39.2% | 42.53% and 40.76% | 69.6% | 70.04% and 70.55% | 82.3% | 84.9% and 85.44% | 97.5% | 93.8% and 98.6% | 1.46 µM | 1.46 µM and 1.45 µM | O=C(/C=C/c1ccc(O)c(O)c1)Nc1ccc2c(c1)C(=O)c1ccccc1C2=O [MQ3, (E)-3-(3,4-dihydroxyphenyl)-N-(9, 10-dioxo-9, 10-dihydroanthracen-2-yl) acrylamide]
2 |  | 8.82% | 8.55% and 10.84% | 10.2% | 9.974% and 12.33% | 14.3% | 12.23% and 12.25% | 11.6% | 12.81% and 20.99% | 22% | 29% and 27.36% | 107 µM | 107 µM | O=C(C=Cc1ccccc1)Nc1cccc2c1C(=O)c1ccccc1C2=O [MQ5, N-(9, 10-dioxo-9, 10-dihydroanthracen-1-yl) cinnamamide]
3 |  |  | 4.207% and 6.929% and 8.658% | 12% | 11.45% and 12.03% | 11.8% | 13.44% and 14.71% | 18.8% | 20.12% and 19.93% | 33.4% | 34.53% and 33.46% | 27.9 µM | 27.9 µM | O=C(/C=C/c1ccc(O)c(O)c1)Nc1cccc2c1C(=O)c1ccccc1C2=O [MQ1, (E)-3-(3,4-dihydroxyphenyl)-N-(9, 10-dioxo-9, 10-dihydroanthracen-1-yl) acrylamide]
4 |  |  | 6.208% and 1.894% and 2.93% | 5.03% | 3.871% and 7.392% | 10.8% | 12.3% and 11.67% | 19.4% | 20.18% and 23.19% | 40.4% | 41.45% and 37.85% | 14.5 µM | 14.5 µM | O=C(C=Cc1ccccc1)Nc1ccc2c(c1)C(=O)c1ccccc1C2=O [MQ4, N-(9, 10-dioxo-9, 10-dihydroanthracen-2-yl) cinnamamide]
